{
  "source": "patent US8802597B2",
  "about": "“Herbicidal pyrimidines” (E I du Pont de Nemours and Company, priority 2003, dated 2014)",
  "key": {"[1]": {"tested_on": "Italian ryegrass (Lolium multiflorum)", "assay": "Test C postemergence", "format": "in vivo", "summary_of_the_method": "(§1)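 Percent control is a visual rating (0 none, 100 complete) taken against untreated plants after 12 to 14 days of greenhouse growth. Applications were made preemergence to seeded pots and postemergence to plants at the 1- to 4-leaf stage, in a non-phytotoxic surfactant-containing solvent.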"}, "[2]": {"tested_on": "blackgrass (Alopecurus myosuroides)", "assay": "Test C postemergence", "format": "in vivo", "details": "for Plant response rating, Blackgrass: scale 0 to 100", "summary_of_the_method": "as §1"}, "[3]": {"tested_on": "canarygrass (Phalaris minor)", "assay": "Test C postemergence", "format": "in vivo", "details": "for Plant response rating, Canarygrass: scale 0 to 100", "summary_of_the_method": "as §1"}, "[4]": {"tested_on": "downy brome (Bromus tectorum)", "assay": "Test C postemergence", "format": "in vivo", "details": "for Plant response rating, Bromegrass, Downy: scale 0 to 100", "summary_of_the_method": "as §1"}, "[5]": {"tested_on": "green foxtail (Setaria viridis)", "assay": "Test C postemergence", "format": "in vivo", "summary_of_the_method": "as §1"}, "[6]": {"tested_on": "wheat (Triticum aestivum)", "assay": "Test C postemergence", "format": "in vivo", "summary_of_the_method": "as §1"}, "[7]": {"tested_on": "windgrass (Apera spica-venti)", "assay": "Test C postemergence", "format": "in vivo", "summary_of_the_method": "as §1"}, "[8]": {"tested_on": "winter barley (Hordeum vulgare)", "assay": "Test C postemergence", "format": "in vivo", "details": "for Plant response rating, Barley: scale 0 to 100", "summary_of_the_method": "as §1"}, "[9]": {"tested_on": "barnyardgrass (Echinochloa crus-galli)", "assay": "Test C flooded paddy test", "format": "in vivo", "details": "Flood", "summary_of_the_method": "(§2)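 Flooded paddy test: rice, umbrella sedge, duck salad and barnyardgrass grown to 2-leaf stage before treatment with formulated test chemicals. Plants kept in greenhouse 12 to 14 days, then visually rated against controls on 0–100 scale (0 no effect, 100 complete control).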"}, "[10]": {"tested_on": "duck salad (Heteranthera limosa)", "assay": "Test C flooded paddy test", "format": "in vivo", "details": "Flood, scale 0 to 100", "summary_of_the_method": "as §2"}, "rice (Oryza sativa)": {"tested_on": "rice (Oryza sativa)", "assay": "Test C flooded paddy test", "format": "in vivo", "details": "Flood, scale 0 to 100", "summary_of_the_method": "as §2"}, "[11]": {"tested_on": "umbrella sedge (Cyperus difformis)", "assay": "Test C flooded paddy test", "format": "in vivo", "details": "Flood, scale 0 to 100", "summary_of_the_method": "as §2"}},
  "data": [
    {"smiles": "COC(=O)c1nc(C2CC2)nc(N)c1Br", "note": "[Compound 2, methyl 6-amino-5-bromo-2-cyclopropyl-4-pyrimidinecarboxylate]", "values": [
      {"measurement": "Plant response rating (scale of 0 to 100), Ryegrass, Italian", "setting": "[1]; 31 g ai/ha", "result": 35},
      {"measurement": "Plant response rating, Ryegrass, Italian", "setting": "[1]; 250 g ai/ha, scale 0 to 100", "result": 60},
      {"measurement": "pest or weed control at 62 g/ha", "setting": "[1]; Lolium multiflorum, post-emergence, 62 g ai/ha, scale 0 to 100 (0 no effect, 100 complete control), read-out: Ryegrass, Italian plant response rating", "result": 45, "unit": "%"},
      {"measurement": "pest or weed control at 125 g/ha", "setting": "[1]; Lolium multiflorum, post-emergence, 125 g ai/ha, scale 0 to 100 (0 no effect, 100 complete control), read-out: Ryegrass, Italian plant response rating", "result": 60, "unit": "%"},
      {"measurement": "Plant response rating (scale of 0 to 100), Blackgrass", "setting": "[2]; 31 g ai/ha", "result": 60},
      {"measurement": "Plant response rating, Blackgrass", "setting": "[2]; 125 g ai/ha", "result": 70},
      {"measurement": "Plant response rating, Blackgrass", "setting": "[2]; 250 g ai/ha", "result": 75},
      {"measurement": "pest or weed control at 62 g/ha", "setting": "[2]; Alopecurus myosuroides, post-emergence, 62 g ai/ha, scale 0 to 100 (0 no effect, 100 complete control), read-out: Blackgrass plant response rating", "result": 65, "unit": "%"},
      {"measurement": "Plant response rating (scale of 0 to 100), Canarygrass", "setting": "[3]; 31 g ai/ha", "result": 30},
      {"measurement": "Plant response rating, Canarygrass", "setting": "[3]; 125 g ai/ha", "result": 40},
      {"measurement": "Plant response rating, Canarygrass", "setting": "[3]; 250 g ai/ha", "result": 40},
      {"measurement": "pest or weed control at 62 g/ha", "setting": "[3]; Phalaris minor, post-emergence, 62 g ai/ha, scale 0 to 100 (0 no effect, 100 complete control), read-out: Canarygrass plant response rating", "result": 40, "unit": "%"},
      {"measurement": "Plant response rating (scale of 0 to 100), Bromegrass, Downy", "setting": "[4]; 31 g ai/ha", "result": 20},
      {"measurement": "Plant response rating, Bromegrass, Downy", "setting": "[4]; 125 g ai/ha", "result": 45},
      {"measurement": "Plant response rating, Bromegrass, Downy", "setting": "[4]; 250 g ai/ha", "result": 60},
      {"measurement": "pest or weed control at 62 g/ha", "setting": "[4]; Bromus tectorum, post-emergence, 62 g ai/ha, scale 0 to 100 (0 no effect, 100 complete control), read-out: Bromegrass, Downy plant response rating", "result": 35, "unit": "%"},
      {"measurement": "Plant response rating (scale of 0 to 100), Foxtail, Green", "setting": "[5]; 31 g ai/ha", "result": 55},
      {"measurement": "Plant response rating, Foxtail, Green", "setting": "[5]; 250 g ai/ha, scale 0 to 100", "result": 70},
      {"measurement": "pest or weed control at 62 g/ha", "setting": "[5]; Setaria viridis, post-emergence, 62 g ai/ha, scale 0 to 100 (0 no effect, 100 complete control), read-out: Foxtail, Green plant response rating", "result": 55, "unit": "%"},
      {"measurement": "pest or weed control at 125 g/ha", "setting": "[5]; Setaria viridis, post-emergence, 125 g ai/ha, scale 0 to 100 (0 no effect, 100 complete control), read-out: Foxtail, Green plant response rating", "result": 65, "unit": "%"},
      {"measurement": "Plant response rating (scale of 0 to 100), Wheat", "setting": "[6]; 31 g ai/ha", "result": 20},
      {"measurement": "Plant response rating, Wheat", "setting": "[6]; 250 g ai/ha, scale 0 to 100", "result": 65},
      {"measurement": "plant injury at 62 g/ha", "setting": "[6]; Triticum aestivum, post-emergence, 62 g ai/ha, scale 0 to 100 (0 no effect, 100 complete control), read-out: Wheat plant response rating", "result": 60, "unit": "%"},
      {"measurement": "plant injury at 125 g/ha", "setting": "[6]; Triticum aestivum, post-emergence, 125 g ai/ha, scale 0 to 100 (0 no effect, 100 complete control), read-out: Wheat plant response rating", "result": 65, "unit": "%"},
      {"measurement": "Plant response rating (scale of 0 to 100), Windgrass", "setting": "[7]; 31 g ai/ha", "result": 65},
      {"measurement": "Plant response rating, Windgrass", "setting": "[7]; 250 g ai/ha, scale 0 to 100", "result": 70},
      {"measurement": "pest or weed control at 62 g/ha", "setting": "[7]; Apera spica-venti, post-emergence, 62 g ai/ha, scale 0 to 100 (0 no effect, 100 complete control), read-out: Windgrass plant response rating", "result": 65, "unit": "%"},
      {"measurement": "pest or weed control at 125 g/ha", "setting": "[7]; Apera spica-venti, post-emergence, 125 g ai/ha, scale 0 to 100 (0 no effect, 100 complete control), read-out: Windgrass plant response rating", "result": 70, "unit": "%"},
      {"measurement": "Plant response rating (scale of 0 to 100), Barley", "setting": "[8]; 31 g ai/ha", "result": 0},
      {"measurement": "Plant response rating, Barley", "setting": "[8]; 125 g ai/ha", "result": 60},
      {"measurement": "Plant response rating, Barley", "setting": "[8]; 250 g ai/ha", "result": 60},
      {"measurement": "plant injury at 62 g/ha", "setting": "[8]; Hordeum vulgare, post-emergence, 62 g ai/ha, scale 0 to 100 (0 no effect, 100 complete control), read-out: Barley plant response rating", "result": 35, "unit": "%"},
      {"measurement": "Plant response rating, Barnyardgrass", "setting": "[9]; 62 g ai/ha, scale 0 to 100", "result": 0},
      {"measurement": "Plant response rating, Barnyardgrass", "setting": "[9]; 125 g ai/ha, scale 0 to 100", "result": 20},
      {"measurement": "Plant response rating, Barnyardgrass", "setting": "[9]; 250 g ai/ha, scale 0 to 100", "result": 45},
      {"measurement": "Plant response rating, Barnyardgrass", "setting": "[9]; 500 g ai/ha, scale 0 to 100 (0 no effect, 100 complete control)", "result": 75},
      {"measurement": "Plant response rating, Ducksalad", "setting": "[10]; 62 g ai/ha", "result": 50},
      {"measurement": "Plant response rating, Ducksalad", "setting": "[10]; 125 g ai/ha", "result": 70},
      {"measurement": "Plant response rating, Ducksalad", "setting": "[10]; 250 g ai/ha", "result": 90},
      {"measurement": "Plant response rating, Ducksalad", "setting": "[10]; 500 g ai/ha", "result": 95},
      {"measurement": "Plant response rating, Rice", "setting": "rice (Oryza sativa); 62 g ai/ha", "result": 0},
      {"measurement": "Plant response rating, Rice", "setting": "rice (Oryza sativa); 125 g ai/ha", "result": 25},
      {"measurement": "Plant response rating, Rice", "setting": "rice (Oryza sativa); 250 g ai/ha", "result": 45},
      {"measurement": "Plant response rating, Rice", "setting": "rice (Oryza sativa); 500 g ai/ha", "result": 65},
      {"measurement": "Plant response rating, Sedge, Umbrella", "setting": "[11]; 62 g ai/ha", "result": 0},
      {"measurement": "Plant response rating, Sedge, Umbrella", "setting": "[11]; 125 g ai/ha", "result": 0},
      {"measurement": "Plant response rating, Sedge, Umbrella", "setting": "[11]; 250 g ai/ha", "result": 0},
      {"measurement": "Plant response rating, Sedge, Umbrella", "setting": "[11]; 500 g ai/ha", "result": 25},
      {"measurement": "melting point", "result": "148 to 150", "unit": "°C"}
    ]}
  ]
}
